Experimental data from patent US20260022142A1, “MACROCYCLIC IMMUNOMODULATORS” (Bristol-Myers Squibb Company, priority 2022, published 2026).
Bridge positions count the residues as written; N and C are the ends. Square brackets hold non-standard residues; d marks the D form. Peptide text beside a SMILES is read from it. * marks the point of attachment. ξ: configuration not given here. Phe(4-COOH) = N[C@@H](Cc1ccc(C(=O)O)cc1)C(=O)O; Bip = N[C@@H](Cc1ccc(-c2ccccc2)cc1)C(=O)O; Phe(3-Me) = Cc1cccc(C[C@H](N)C(=O)O)c1; Cha = N[C@@H](CC1CCCCC1)C(=O)O; Thr(3ξ) = CC(O)[C@H](N)C(=O)O; Carboxymethyl = O=C(O)C*; Orn = NCCC[C@H](N)C(=O)O; Aun = NCCCCCCCCCCC(=O)O; Dab = NCC[C@H](N)C(=O)O; Dap = NC[C@H](N)C(=O)O; AEEA = NCCOCCOCC(=O)O

Molecular target: T1, PD-1/PD-L1 interaction (PE-labeled human PD-L1-Ig binding to Jurkat cell line over-expressing human PD-1) (Homo sapiens, UniProt Q15116)
T1 construct: expressed in transfected cells; host or cells: Jurkat
T1 sequence (Q15116 25-288): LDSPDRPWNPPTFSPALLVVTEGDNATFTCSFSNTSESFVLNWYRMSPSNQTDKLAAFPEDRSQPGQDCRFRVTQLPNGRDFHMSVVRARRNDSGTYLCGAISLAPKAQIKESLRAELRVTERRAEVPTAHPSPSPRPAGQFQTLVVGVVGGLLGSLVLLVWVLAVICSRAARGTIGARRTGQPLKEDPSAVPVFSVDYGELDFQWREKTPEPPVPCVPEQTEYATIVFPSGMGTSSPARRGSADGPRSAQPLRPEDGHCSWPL
Assay: Jurkat-PD-1 Cell Binding High-Content Screening Assay (CBA)
Type: cell-based
Details: Jurkat cell line over-expressing human PD-1; PE-labeled PD-L1-Ig 20 nM final; read-out: Jurkat hPD1-PDL1 IC50
Method in brief: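 Jurkat cells over-expressing human PD-1 (8×10^3 per well, DMEM/10% FCS) preincubated with compound 2 h at 37° C, then PE-labeled human PD-L1-Ig (20 nM final) added for 1 h. Cells fixed with paraformaldehyde, Hoechst-stained, and bound fluorescence quantified by high-content imaging.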

Cc1cccc(C[C@@H]2NC(=O)[C@H](CC(=O)O)NC(=O)[C@H](Cc3ccc(OCC(=O)O)cc3)NC(=O)[C@H](CN)NC(=O)CSC[C@@H](C(=O)NCCOCCOCC(=O)N[C@@H](CCN)C(=O)NCCCCCCCCCCC(=O)O)NC(=O)[C@H](C(C)O)NC(=O)[C@H](C(C)C)NC(=O)[C@H](CC3CCCCC3)NC(=O)[C@H](CCN)NC(=O)[C@@H](CC(C)C)NC(=O)[C@H](CCCN)NC(=O)[C@H](Cc3ccc(O)cc3)NC(=O)[C@H](Cc3ccc(-c4ccccc4)cc3)NC(=O)[C@H](C(C)C)NC2=O)c1 (stereo partly drawn) [Compound 2591] ({CH2CO}-[Dap]Y(Carboxymethyl)D[Phe(3-Me)]V[Bip]Y[Orn][dL][Dab][Cha]V[Thr(3ξ)]C[AEEA][Dab][Aun]-OH; thioether N-14)
IC50: 9.5 nM

Cc1cccc(C[C@@H]2NC(=O)[C@H](CC(=O)O)NC(=O)[C@H](Cc3ccc(OCC(=O)O)cc3)NC(=O)[C@H](CN)NC(=O)CSC[C@@H](C(=O)NCCOCCOCC(=O)N[C@@H](CCN)C(=O)NCCCCCCCCCCC(=O)O)NC(=O)[C@H](CCCN)NC(=O)[C@H](C(C)C)NC(=O)[C@H](CC3CCCCC3)NC(=O)[C@H](CCN)NC(=O)[C@@H](CC(C)C)NC(=O)[C@H](CCCN)NC(=O)[C@H](Cc3ccc(O)cc3)NC(=O)[C@H](Cc3ccc(-c4ccccc4)cc3)NC(=O)[C@H](C(C)C)NC2=O)c1 [Compound 2592] ({CH2CO}-[Dap]Y(Carboxymethyl)D[Phe(3-Me)]V[Bip]Y[Orn][dL][Dab][Cha]V[Orn]C[AEEA][Dab][Aun]-OH; thioether N-14)
IC50: 10.8 nM

CC(C)C[C@H]1NC(=O)[C@H](CCCN)NC(=O)[C@H](C(C)C)NC(=O)[C@H](Cc2ccc(-c3ccccc3)cc2)NC(=O)[C@H](C(C)C)NC(=O)[C@H](Cc2c[nH]c3ccccc23)NC(=O)[C@H](CC(=O)O)NC(=O)[C@H](Cc2ccc(C(=O)O)cc2)NC(=O)[C@H](Cc2ccc(OCC(=O)O)cc2)NC(=O)CSC[C@@H](C(=O)NCCOCCOCC(=O)N[C@@H](CCCCN)C(=O)NCCCCCCCCCCC(=O)O)NC(=O)[C@H](CCCCN)NC(=O)[C@H](C(C)C)NC(=O)[C@H](CC2CCCCC2)NC(=O)[C@H](CCN)NC1=O [Compound 2593] ({CH2CO}-Y(Carboxymethyl)[Phe(4-COOH)]DWV[Bip]V[Orn][dL][Dab][Cha]VKC[AEEA]K[Aun]-OH; thioether N-14)
IC50: 18.4 nM

CC(C)C[C@H]1NC(=O)[C@H](CCCN)NC(=O)[C@H](C(C)C)NC(=O)[C@H](Cc2ccc(-c3ccccc3)cc2)NC(=O)[C@H](C(C)C)NC(=O)[C@H](Cc2c[nH]c3ccccc23)NC(=O)[C@H](CC(=O)O)NC(=O)[C@H](Cc2ccc(OCC(=O)O)cc2)NC(=O)[C@H](CN)NC(=O)CSC[C@@H](C(=O)NCCOCCOCC(=O)N[C@@H](CCCCN)C(=O)NCCCCCCCCCCC(=O)O)NC(=O)[C@H](CCCCN)NC(=O)[C@H](C(C)C)NC(=O)[C@H](CC2CCCCC2)NC(=O)[C@H](CCN)NC1=O [Compound 2595] ({CH2CO}-[Dap]Y(Carboxymethyl)DWV[Bip]V[Orn][dL][Dab][Cha]VKC[AEEA]K[Aun]-OH; thioether N-14)
IC50: 34.1 nM

Cc1cccc(C[C@@H]2NC(=O)[C@H](CC(=O)O)NC(=O)[C@H](Cc3ccc(OCC(=O)O)cc3)NC(=O)[C@H](CN)NC(=O)CSC[C@@H](C(=O)NCCOCCOCC(=O)N[C@@H](CCCCN)C(=O)NCCCCCCCCCCC(=O)O)NC(=O)[C@H](CN)NC(=O)[C@H](C(C)C)NC(=O)[C@H](CC3CCCCC3)NC(=O)[C@H](CCN)NC(=O)[C@@H](CC(C)C)NC(=O)[C@H](CCCN)NC(=O)[C@H](C(C)C)NC(=O)[C@H](Cc3ccc(-c4ccccc4)cc3)NC(=O)[C@H](C(C)C)NC2=O)c1 [Compound 2596] ({CH2CO}-[Dap]Y(Carboxymethyl)D[Phe(3-Me)]V[Bip]V[Orn][dL][Dab][Cha]V[Dap]C[AEEA]K[Aun]-OH; thioether N-14)
IC50: 9.6 nM

Cc1cccc(C[C@@H]2NC(=O)[C@H](CC(=O)O)NC(=O)[C@H](Cc3ccc(OCC(=O)O)cc3)NC(=O)[C@H](CN)NC(=O)CSC[C@@H](C(=O)NCCOCCOCC(=O)N[C@@H](CCCCN)C(=O)NCCCCCCCCCCC(=O)O)NC(=O)[C@H](CCCN)NC(=O)[C@H](C(C)C)NC(=O)[C@H](CC3CCCCC3)NC(=O)[C@H](CCN)NC(=O)[C@@H](CC(C)C)NC(=O)[C@H](CCCN)NC(=O)[C@H](C(C)C)NC(=O)[C@H](Cc3ccc(-c4ccccc4)cc3)NC(=O)[C@H](C(C)C)NC2=O)c1 [Compound 2597] ({CH2CO}-[Dap]Y(Carboxymethyl)D[Phe(3-Me)]V[Bip]V[Orn][dL][Dab][Cha]V[Orn]C[AEEA]K[Aun]-OH; thioether N-14)
IC50: 8.9 nM

Cc1cccc(C[C@@H]2NC(=O)[C@H](CC(=O)O)NC(=O)[C@H](Cc3ccc(OCC(=O)O)cc3)NC(=O)[C@H](CN)NC(=O)CSC[C@@H](C(=O)NCCOCCOCC(=O)N[C@@H](CCCCN)C(=O)NCCCCCCCCCCC(=O)O)NC(=O)[C@H](CCCNC(=N)N)NC(=O)[C@H](C(C)C)NC(=O)[C@H](CC3CCCCC3)NC(=O)[C@H](CCN)NC(=O)[C@@H](CC(C)C)NC(=O)[C@H](CCCN)NC(=O)[C@H](C(C)C)NC(=O)[C@H](Cc3ccc(-c4ccccc4)cc3)NC(=O)[C@H](C(C)C)NC2=O)c1 [Compound 2598] ({CH2CO}-[Dap]Y(Carboxymethyl)D[Phe(3-Me)]V[Bip]V[Orn][dL][Dab][Cha]VRC[AEEA]K[Aun]-OH; thioether N-14)
IC50: 10.6 nM

CC(C)C[C@H]1NC(=O)[C@H](CCCN)NC(=O)[C@H](C(C)C)NC(=O)[C@H](Cc2ccc(-c3ccccc3)cc2)NC(=O)[C@H](C(C)C)NC(=O)[C@H](Cc2c[nH]c3ccccc23)NC(=O)[C@H](CC(=O)O)NC(=O)[C@H](Cc2ccc(OCC(=O)O)cc2)NC(=O)[C@H](Cc2ccc(OCC(=O)O)cc2)NC(=O)CSC[C@@H](C(=O)NCCOCCOCC(=O)N[C@@H](CCCCN)C(=O)NCCCCCCCCCCC(=O)O)NC(=O)[C@H](CCCN)NC(=O)[C@H](C(C)C)NC(=O)[C@H](CC2CCCCC2)NC(=O)[C@H](CCN)NC1=O [Compound 2599] ({CH2CO}-Y(Carboxymethyl)Y(Carboxymethyl)DWV[Bip]V[Orn][dL][Dab][Cha]V[Orn]C[AEEA]K[Aun]-OH; thioether N-14)
IC50: 8.2 nM

CC(C)C[C@H]1NC(=O)[C@H](CCCN)NC(=O)[C@H](C(C)C)NC(=O)[C@H](Cc2ccc(-c3ccccc3)cc2)NC(=O)[C@H](C(C)C)NC(=O)[C@H](Cc2c[nH]c3ccccc23)NC(=O)[C@H](CC(=O)O)NC(=O)[C@H](Cc2ccc(OCC(=O)O)cc2)NC(=O)[C@H](Cc2ccc(OCC(=O)O)cc2)NC(=O)CSC[C@@H](C(=O)NCCOCCOCC(=O)N[C@@H](CCCCN)C(=O)NCCCCCCCCCCC(=O)O)NC(=O)[C@H](CN)NC(=O)[C@H](C(C)C)NC(=O)[C@H](CC2CCCCC2)NC(=O)[C@H](CCN)NC1=O [Compound 2600] ({CH2CO}-Y(Carboxymethyl)Y(Carboxymethyl)DWV[Bip]V[Orn][dL][Dab][Cha]V[Dap]C[AEEA]K[Aun]-OH; thioether N-14)
IC50: 10.3 nM

CC(C)C[C@H]1NC(=O)[C@H](CCCN)NC(=O)[C@H](C(C)C)NC(=O)[C@H](Cc2ccc(-c3ccccc3)cc2)NC(=O)[C@H](C(C)C)NC(=O)[C@H](Cc2c[nH]c3ccccc23)NC(=O)[C@H](CC(=O)O)NC(=O)[C@H](Cc2ccc(C(=O)O)cc2)NC(=O)[C@H](Cc2ccc(OCC(=O)O)cc2)NC(=O)CSC[C@@H](C(=O)NCCCCCCCCCCC(=O)O)NC(=O)[C@H](CCCCN)NC(=O)[C@H](C(C)C)NC(=O)[C@H](CC2CCCCC2)NC(=O)[C@H](CCN)NC1=O [Compound 2601] ({CH2CO}-Y(Carboxymethyl)[Phe(4-COOH)]DWV[Bip]V[Orn][dL][Dab][Cha]VKC[Aun]-OH; thioether N-14)
IC50: 18.2 nM

CC(C)C[C@H]1NC(=O)[C@H](CCCN)NC(=O)[C@H](C(C)C)NC(=O)[C@H](Cc2ccc(-c3ccccc3)cc2)NC(=O)[C@H](C(C)C)NC(=O)[C@H](Cc2c[nH]c3ccccc23)NC(=O)[C@H](CC(=O)O)NC(=O)[C@H](Cc2ccc(OCC(=O)O)cc2)NC(=O)[C@H](Cc2ccc(OCC(=O)O)cc2)NC(=O)CSC[C@@H](C(=O)NCCCCCCCCCCC(=O)O)NC(=O)[C@H](CCCNC(=N)N)NC(=O)[C@H](C(C)C)NC(=O)[C@H](CC2CCCCC2)NC(=O)[C@H](CCN)NC1=O [Compound 2602]
IC50: 18.4 nM

CC(C)C[C@H]1NC(=O)[C@H](CCCN)NC(=O)[C@H](C(C)C)NC(=O)[C@H](Cc2ccc(-c3ccccc3)cc2)NC(=O)[C@H](C(C)C)NC(=O)[C@H](Cc2c[nH]c3ccccc23)NC(=O)[C@H](CC(=O)O)NC(=O)[C@H](Cc2ccc(OCC(=O)O)cc2)NC(=O)[C@H](CN)NC(=O)CSC[C@@H](C(=O)NCCCCCCCCCCC(=O)O)NC(=O)[C@H](CCCCN)NC(=O)[C@H](C(C)C)NC(=O)[C@H](CC2CCCCC2)NC(=O)[C@H](CCN)NC1=O [Compound 2603] ({CH2CO}-[Dap]Y(Carboxymethyl)DWV[Bip]V[Orn][dL][Dab][Cha]VKC[Aun]-OH; thioether N-14)
IC50: 7.1 nM

Cc1cccc(C[C@@H]2NC(=O)[C@H](CC(=O)O)NC(=O)[C@H](Cc3ccc(OCC(=O)O)cc3)NC(=O)[C@H](CN)NC(=O)CSC[C@@H](C(=O)NCCCCCCCCCCC(=O)O)NC(=O)[C@H](CN)NC(=O)[C@H](C(C)C)NC(=O)[C@H](CC3CCCCC3)NC(=O)[C@H](CCN)NC(=O)[C@@H](CC(C)C)NC(=O)[C@H](CCCN)NC(=O)[C@H](C(C)C)NC(=O)[C@H](Cc3ccc(-c4ccccc4)cc3)NC(=O)[C@H](C(C)C)NC2=O)c1 [Compound 2604] ({CH2CO}-[Dap]Y(Carboxymethyl)D[Phe(3-Me)]V[Bip]V[Orn][dL][Dab][Cha]V[Dap]C[Aun]-OH; thioether N-14)
IC50: 13.2 nM

Cc1cccc(C[C@@H]2NC(=O)[C@H](CC(=O)O)NC(=O)[C@H](Cc3ccc(OCC(=O)O)cc3)NC(=O)[C@H](CN)NC(=O)CSC[C@@H](C(=O)NCCCCCCCCCCC(=O)O)NC(=O)[C@H](CCCN)NC(=O)[C@H](C(C)C)NC(=O)[C@H](CC3CCCCC3)NC(=O)[C@H](CCN)NC(=O)[C@@H](CC(C)C)NC(=O)[C@H](CCCN)NC(=O)[C@H](C(C)C)NC(=O)[C@H](Cc3ccc(-c4ccccc4)cc3)NC(=O)[C@H](C(C)C)NC2=O)c1 [Compound 2605] ({CH2CO}-[Dap]Y(Carboxymethyl)D[Phe(3-Me)]V[Bip]V[Orn][dL][Dab][Cha]V[Orn]C[Aun]-OH; thioether N-14)
IC50: 5.6 nM
